Source: doi:10.1101/2024.06.25.600598v1 (biorxiv, 2024)
Counter-ions that a name gives are not always drawn.

How the values were obtained:
[1] = biological target: T1, fibroblast activation protein (FAP; rhFAP, SLIN-tagged hFAP) (Homo sapiens, UniProt Q12884); assay: DIANA competition with DNA-linked probe, qPCR; type: binding
T1 sequence (Q12884 35-760): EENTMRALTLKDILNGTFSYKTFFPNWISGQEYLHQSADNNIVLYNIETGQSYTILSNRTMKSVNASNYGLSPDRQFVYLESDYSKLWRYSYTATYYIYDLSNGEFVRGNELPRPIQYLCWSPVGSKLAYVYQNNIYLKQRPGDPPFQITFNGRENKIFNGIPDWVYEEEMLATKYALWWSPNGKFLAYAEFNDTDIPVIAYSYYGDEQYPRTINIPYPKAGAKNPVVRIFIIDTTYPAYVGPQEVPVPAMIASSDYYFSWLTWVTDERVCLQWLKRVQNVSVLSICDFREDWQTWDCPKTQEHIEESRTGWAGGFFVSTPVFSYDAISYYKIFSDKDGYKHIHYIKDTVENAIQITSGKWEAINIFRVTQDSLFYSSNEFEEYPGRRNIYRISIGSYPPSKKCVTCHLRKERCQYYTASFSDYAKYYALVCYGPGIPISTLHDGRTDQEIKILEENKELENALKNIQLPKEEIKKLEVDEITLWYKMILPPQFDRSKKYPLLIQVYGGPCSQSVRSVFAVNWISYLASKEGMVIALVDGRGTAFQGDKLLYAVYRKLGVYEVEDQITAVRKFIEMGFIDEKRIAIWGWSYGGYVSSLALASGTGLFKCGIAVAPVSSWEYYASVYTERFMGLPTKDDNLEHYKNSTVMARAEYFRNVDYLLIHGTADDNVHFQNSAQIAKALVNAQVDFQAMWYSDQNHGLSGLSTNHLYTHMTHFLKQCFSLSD

[2] = biological target: T1, fibroblast activation protein (FAP; rhFAP, SLIN-tagged hFAP); assay: biochemical
[3] = biological target: T1, fibroblast activation protein (FAP; rhFAP, SLIN-tagged hFAP); conditions: 2 µM; inhibitor
[4] = biological target: T1, fibroblast activation protein (FAP; rhFAP, SLIN-tagged hFAP); assay: fluorogenic AMC substrate activity assay; type: biochemical
[5] = biological target: T1, fibroblast activation protein (FAP; rhFAP, SLIN-tagged hFAP); assay: biochemical; type: binding

| SMILES | Ki [1] [µM] | Ki [2] [µM] | Relative inhibition (%), activity assay [3] [%] | IC50 [4] [µM] | Ki [5] [µM] |
| --- | --- | --- | --- | --- | --- |
| Cc1ccc(C)c(CNC(=O)C(=O)[C@@H]2CCCN2C(=O)CNC(=O)c2ccnc3ccccc23)c1 [6f] | 0.0007 ± 0.0001 | – | – | – | – |
| CCOc1ccc(Nc2ccc(/C(=C3/C=CC(=[N+](CC)Cc4cccc(S(=O)(=O)[O-])c4)C=C3C)c3ccc(N(CC)Cc4cccc(S(=O)(=O)O)c4)cc3C)cc2)cc1 [Brilliant blue G-250] | – | 0.9 | 28 | – | – |
| CNC(=O)c1ccc(-c2cnc3ncc(Cc4ccc5ncccc5c4)n3n2)cc1F [Capmatinib] | – | 3.3 | 27 | – | – |
| CCOC(=O)n1ccn(C)c1=S [Carbimazole] | – | 7.9 | 26 | – | – |
| CCN1CCN(C(=O)N[C@@H](C(=O)N[C@@H]2C(=O)N3C(C(=O)O)=C(CSc4nnnn4C)CS[C@H]23)c2ccc(O)cc2)C(=O)C1=O [Cefoperazone (sodium salt)] | – | 3.9 | 25 | – | – |
| CC(=O)OCC1=C(C(=O)O)N2C(=O)[C@@H](NC(=O)CSc3ccncc3)[C@H]2SC1 [Cephapirin (sodium)] | – | 7.6 | 18 | – | – |
| CCCC(=O)OCOC(=O)C1=C(C)NC(C)=C(C(=O)OC)C1c1cccc(Cl)c1Cl (stereo not shown) [Clevidipine] | – | 1.7 | 35 | – | – |
| COc1cccc2c1C(=O)c1c(O)c3c(c(O)c1C2=O)C[C@@](O)(C(C)=O)C[C@@H]3O[C@H]1C[C@H](N)[C@H](O)[C@H](C)O1 [Daunorubicin (hydrochloride)] | – | 6.4 | 23 | – | – |
| CC/C=C\C/C=C\C/C=C\C/C=C\C/C=C\C/C=C\CCC(=O)O [Docosahexaenoic acid] | – | 5.5 | 10 | – | – |
| COc1ccc(-c2cc(=O)c3c(O)c(OC)c(O)cc3o2)cc1OC [Eupatilin] | – | 2 | 16 | – | – |
| Cc1cc(-c2ccc(/N=N/c3ccc4c(S(=O)(=O)O)cc(S(=O)(=O)O)c(N)c4c3O)c(C)c2)ccc1/N=N/c1ccc2c(S(=O)(=O)O)cc(S(=O)(=O)O)c(N)c2c1O [Evans Blue] | – | 5.7 | 21 | – | – |
| CCc1c(Cl)c(O)c(Cl)c(O)c1C(=O)O[C@H]1[C@H](O)[C@H](OC)[C@H](OC/C2=C\C=C\C[C@H](O)/C(C)=C/[C@H](CC)[C@@H](O[C@@H]3OC(C)(C)[C@@H](OC(=O)C(C)C)[C@H](O)[C@@H]3O)/C(C)=C/C(C)=C/C[C@@H]([C@@H](C)O)OC2=O)O[C@@H]1C [Fidaxomicin] | – | 6.9 | 10 | – | – |
| O=C1OC2(c3ccc(O)cc3Oc3cc(O)ccc32)c2ccccc21 [Fluorescein (sodium)] | – | – | – | > 20 | – |
| CCC1=C(C)CN(C(=O)NCCc2ccc(S(=O)(=O)NC(=O)N[C@H]3CC[C@H](C)CC3)cc2)C1=O [Glimepiride] | – | 8.8 | 16 | – | – |
| CC(=O)[C@]1(O)Cc2c(O)c3c(c(O)c2[C@@H](O[C@H]2C[C@H](N)[C@H](O)[C@H](C)O2)C1)C(=O)c1ccccc1C3=O [Idarubicin (hydrochloride)] | – | 3.6 | 19 | – | – |
| CC1(C)C(/C=C/C=C/C=C/C=C2\N(CCCCS(=O)(=O)O)c3ccc4ccccc4c3C2(C)C)=[N+](CCCCS(=O)(=O)[O-])c2ccc3ccccc3c21 [Indocyanine green] | – | 4.1 | 20 | – | – |

| SMILES | Ki [1] [µM] | Ki [2] [µM] | Relative inhibition (%), activity assay [3] [%] | IC50 [4] [µM] | Ki [5] [µM] |
| --- | --- | --- | --- | --- | --- |
| Cc1cnc(C(=O)N[C@H]2CCCCC/C=C\[C@@H]3C[C@@]3(C(=O)NS(=O)(=O)C3CC3)NC(=O)[C@@H]3C[C@@H](Oc4nc5ccccc5c5ccccc45)CN3C2=O)cn1 [Paritaprevir] | – | 9.7 | 35 | – | – |
| COc1cccc2c1C(=O)c1c(O)c3c(c(O)c1C2=O)C[C@@](O)(C(=O)CO)C[C@@H]3O[C@H]1C[C@H](N)[C@H](O[C@@H]2CCCCO2)[C@H](C)O1 [Pirarubicin (Hydrochloride)] | – | 0.6 | 19 | – | – |
| COc1ccc2nc3cc(Cl)ccc3c(Nc3cc(CN4CCCC4)c(O)c(CN4CCCC4)c3)c2n1 [Pyronaridine (tetraphosphate)] | – | 7.1 | 19 | – | – |
| C[n+]1cc2c3c(ccc2c2ccc4cc5c(cc4c21)OCO5)OCO3 [Sanguinarine (chloride)] | – | 7.2 | 13 | – | – |
| Cc1ccc(C(=O)Nc2ccc(S(=O)(=O)O)c3cc(S(=O)(=O)O)cc(S(=O)(=O)O)c23)cc1NC(=O)c1cccc(NC(=O)Nc2cccc(C(=O)Nc3cc(C(=O)Nc4ccc(S(=O)(=O)O)c5cc(S(=O)(=O)O)cc(S(=O)(=O)O)c45)ccc3C)c2)c1 [Suramin (sodium salt)] | – | 9.1 | 12 | – | – |
| C=Cc1c(C)c2cc3nc(c(CC(=O)N[C@@H](CC(=O)O)C(=O)O)c4[nH]c(cc5nc(cc1[nH]2)C(C)=C5CC)c(C)c4C(=O)O)[C@@H](CCC(=O)O)[C@@H]3C [Talaporfin (sodium)] | – | 3 | 12 | – | – |
| CCN(c1cc(-c2ccc(CN3CCOCC3)cc2)cc(C(=O)NCc2c(C)cc(C)[nH]c2=O)c1C)C1CCOCC1 [Tazemetostat (hydrobromide)] | – | 8.7 | 22 | – | – |
| C[C@@H](O)[C@H]1C(=O)N2C(C(=O)OCOC(=O)C(C)(C)C)=C(SC3CN(C4=NCCS4)C3)[C@H](C)[C@H]12 [Tebipenem pivoxil] | – | – | – | – | 0.64 |
| CCN(CC)CCOc1ccc2c(c1)C(=O)c1cc(OCCN(CC)CC)ccc1-2 [Tilorone (dihydrochloride)] | – | 2.9 | 30 | – | – |
| CN1CCN(c2ccc(Nc3ncc4cc5n(c4n3)C3(CCCCC3)CNC5=O)nc2)CC1 [Trilaciclib (hydrochloride)] | – | 5.9 | 19 | – | – |
| COc1cc2/c(=N/c3ccc(Br)cc3F)nc[nH]c2cc1OCC1CCN(C)CC1 [Vandetanib] | – | 9.4 | 29 | – | – |
| C=CC1=C(C)C2=Cc3c(C=C)c(C)c4[n]3[Fe]([Cl])[n]3c(c(C)c(CCC(=O)O)c3=CC3=NC(=C4)C(C)=C3CCC(=O)O)=CC1=N2 [hemin] | – | – | – | – | 0.6 |
| CC(C)(C)C(=O)OCOC(=O)[C@@H]1N2C(=O)[C@@H](N=CN3CCCCCC3)[C@H]2SC1(C)C [pivmecillinam] | – | – | 45 | – | 2.2 |
| C=CC1=C(C)c2cc3[nH]c(cc4nc(cc5[nH]c(cc1n2)c(C)c5CCC(=O)O)C(CCC(=O)O)=C4C)c(C)c3C=C [protoporphyrin IX] | – | – | 46 | – | 0.8 |
| O=C1OC2(c3cc(I)c(O)c(I)c3Oc3c2cc(I)c(O)c3I)c2c(Cl)c(Cl)c(Cl)c(Cl)c21 [rose bengal] | – | – | 9 | – | 0.1 |
